Data published in patent publication US7592144B2, “Bacterial ligand-binding sensor” (The Trustees of Princeton University, priority 2005, dated 2009).
Entries after “also recorded” stand apart in the source; their conditions may differ.

Legend:
[1] = target: T1, human estrogen receptor alpha ligand-binding domain (Homo sapiens, UniProt P03372); experiment: Detection of antagonism: pMIT::ER* cells grown in the presence of E2 plus increasing concentrations of test compound; assay type: cell-based; details: 10 micromolar E2, liquid thymineless medium, 34 degrees Celsius, OD600 at 15 hours
T1 construct: expressed in transfected cells; host or cells: E. coli D1210(delta)thyA carrying pMIT::ER*
T1 sequence (P03372 301-553): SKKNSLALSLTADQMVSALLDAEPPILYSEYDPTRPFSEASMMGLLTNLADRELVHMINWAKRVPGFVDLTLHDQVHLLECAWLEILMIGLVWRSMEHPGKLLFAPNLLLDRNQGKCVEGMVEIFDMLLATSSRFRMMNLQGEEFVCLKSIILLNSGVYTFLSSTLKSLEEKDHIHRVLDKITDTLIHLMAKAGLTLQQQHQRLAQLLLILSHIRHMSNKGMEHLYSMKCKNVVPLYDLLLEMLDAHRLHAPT
Procedure: FIG. 4 is a graph showing antagonism of estrogen agonists and antagonists. […] Relative cell growth was determined by OD600 at 15 hours in 5 milliliter cultures of liquid thymineless medium at 34 degrees Celsius.
(§1) All experiments were carried out at least in duplicate.

ER = target: T2, ER (Homo sapiens, UniProt P03372); experiment: Hormone-dependent growth with inteinless MBP-ER-TS fusion
T2 sequence (P03372 301-553): T1 sequence (P03372 301-553)

[2] = target: T3, human thyroid hormone receptor beta ligand-binding domain (Homo sapiens, UniProt P10828); experiment: Paper disk growth test of cells harboring pMIT::TR* on thymineless agar plates; assay type: cell-based; details: 30 degrees Celsius, approximately 50 hours, disks saturated in 10 millimolar solutions
T3 construct: expressed in transfected cells; host or cells: E. coli D1210(delta)thyA carrying pMIT::TR*
T3 sequence (P10828 203-461): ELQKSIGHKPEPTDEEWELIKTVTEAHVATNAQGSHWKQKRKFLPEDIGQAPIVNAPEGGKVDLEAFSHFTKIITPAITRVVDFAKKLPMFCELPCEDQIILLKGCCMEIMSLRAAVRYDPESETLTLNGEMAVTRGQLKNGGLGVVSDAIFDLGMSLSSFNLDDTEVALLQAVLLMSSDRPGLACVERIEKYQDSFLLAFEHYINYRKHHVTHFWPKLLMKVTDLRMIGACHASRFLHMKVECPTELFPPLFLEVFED
Procedure: (§2) FIG. 2 consists of FIGS. 2A, 2B, 2C, and 2D. FIG. 2A is a graph that depicts ligand effects on the growth phenotypes of E. coli D1210(delta)thyA cells carrying the pMIT::ER* vector in 50 milliliter cultures of liquid thymineless medium at 34 degrees Celsius. […] Varying concentrations of estrogen were dissolved in dimethylsulfoxide to allow precise control of dosing. Experiments were carried out in duplicate and errors bars represent one standard deviation from the mean value. FIG. 2C is a graph that depicts ligand effects on the growth phenotypes of cells harboring pMIT::TR* in 50 milliliter cultures of liquid thymineless medium at 34 degrees Celsius. FIG. 2D is an image that depicts ligand effects on the growth phenotypes of cells harboring pMIT::TR* and incubated on thymineless agar plates at 30 degrees Celsius for approximately 50 hours. […] In the experiment corresponding to FIG. 2D, the paper disks applied were allowed to saturate in 10 millimolar solutions of estrogen and thyroid hormone prior to applying them to the medium.
In this case a lawn of cells was plated onto thymineless medium and exposed to small paper disks impregnated with either estrogen or thyroid hormone.

[3] = target: T3, human thyroid hormone receptor beta ligand-binding domain; experiment: Growth phenotype of E. coli D1210(delta)thyA cells carrying pMIT::TR* in liquid thymineless medium; assay type: cell-based; details: 34 degrees Celsius, ligand 10 micromolar
Procedure: as §2, §1

[4] = target: T1, human estrogen receptor alpha ligand-binding domain; experiment: Growth phenotype of E. coli D1210(delta)thyA cells carrying pMIT::ER* in liquid thymineless medium; assay type: cell-based; details: 34 degrees Celsius, ligand 10 micromolar
Procedure: as §2, §1

| effect on cell growth when combined with estrogen agonist [1] | behaviour (agonist/antagonist) with inteinless fusion (ER) | Molecule | colony formation around ligand-impregnated paper disk [2] | ligand effect on cell growth [3] | ligand effect on cell growth [4] |
| --- | --- | --- | --- | --- | --- |
| inhibitory effects | estrogen super-agonist | 4-hydroxytamoxifen | – | – | – |
| – | – | 17-beta-estradiol [E2] | no colonies could be observed | – | – |
| – | – | N[C@@H](Cc1ccc(Oc2cc(I)c(O)c(I)c2)c(I)c1)C(=O)O [T3, 3,3′,5′-triiodo-L-thyronine] | clear colonies were observed | able to grow only in the presence; also recorded: able to enhance growth | insensitive; also recorded: enhance growth only in cell cultures expressing the TR fusion |
| – | – | CC(=O)[C@H]1CC[C@H]2[C@@H]3CCC4=CC(=O)CC[C@]4(C)[C@H]3CC[C@]12C [progesterone] | – | no effect on cell growth | no effect on cell growth |
